Measurements as given in publication PMC10778198, “First-in-Human Dose-Escalation Study of the Novel Oral Depsipeptide Class I-Targeting HDAC Inhibitor Bocodepsin (OKI-179) in Patients with Advanced Solid Tumors” (Cancers, 2023).
Marks after values point to notes of the source that are not given here.

Test system: patients with advanced solid tumors
Assay: phase I dose escalation: safety, DLT, MTD, RP2D (CTCAE v. 5)
Assay type: in vivo
Settings: for maximum tolerated dose (MTD): oral once daily
Source text: Subsequent dosing cohorts were enrolled using a standard 3 + 3 design.
If any patient in any cohort of three patients developed a DLT during cycle 1, an additional three patients were recruited to expand the cohort to up to six evaluable patients. If two or more patients in any expanded cohort developed a DLT, this dose was considered non-tolerated, and dose escalation was discontinued. The MTD was defined as the highest dose level for which no more than one of six patients experienced a DLT.
Patients were continuously evaluated for adverse events throughout the study using the Common Terminology Criteria of Adverse Events (CTCAE v. 5). The patients underwent a clinical history and physical examination, an ECOG PS, a complete blood count (CBCs), chemistry, coagulation studies, urinalysis, a serum pregnancy test (as applicable), a triplicate ECG, an ophthalmology examination, and baseline tumor assessment at screening. During cycle 1, weekly history and physical examination, CBC, chemistry, coagulation parameters, urinalysis, and triplicate ECGs were performed; in subsequent cycles, weekly labs were limited to a CBC. Repeat ophthalmology examinations were performed at cycle 3, day 1, and at the end of treatment. Repeat tumor assessment was performed every 2 cycles (6 weeks) in accordance with RECIST 1.1.

[1] = All Continuous Patients (N=8), G3
[2] = All Continuous Patients (N=8), G4

CC(C)[C@H](N)C(=O)SCC/C=C/[C@@H]1CC(=O)NCc2nc(cs2)C(=O)NC(C)(C)C(=O)N[C@@H](C(C)C)C(=O)O1 [OKI-179, Bocodepsin]
TEAE: Headache [1]: 0 N (%)
TEAE: Nausea [1]: 0 N (%)
TEAE: Pain [1]: 0 N (%)
TEAE: Platelet count decreased [1]: 0 N (%)
TEAE: Abdominal pain [2]: 0 N (%)
TEAE: Anemia [2]: 0 N (%)
TEAE: Constipation [2]: 0 N (%)
TEAE: Decreased appetite [2]: 0 N (%)
TEAE: Diarrhea [2]: 0 N (%)
TEAE: Dyspepsia [2]: 0 N (%)
TEAE: ECG QT prolonged [2]: 0 N (%)
TEAE: Fatigue [2]: 0 N (%)
TEAE: Headache [2]: 0 N (%)
TEAE: Nausea [2]: 0 N (%)
TEAE: Pain [2]: 0 N (%)
TEAE: Platelet count decreased [2]: 2 (25) N (%)
DLTs (Cohort 1, 30 mg, Schedule 1 (4:3), 1 patient): 0 patients
DLTs (Cohort 2, 60 mg, Schedule 1 (4:3), 2 patients): 0 patients
DLTs (Cohort 3, 90 mg, Schedule 1 (4:3), 1 patient): 0 patients
DLTs (Cohort 4, 120 mg, Schedule 1 (4:3), 1 patient): 0 patients
DLTs (Cohort 5, 150 mg, Schedule 1 (4:3), 1 patient): 0 patients
DLTs (Cohort 6, 180 mg, Schedule 1 (4:3), 1 patient): 0 patients
DLTs (Cohort 7, 210 mg, Schedule 1 (4:3), 1 patient): 0 patients
DLTs (Cohort 8, 270 mg, Schedule 1 (4:3), 3 patients): 0 patients
DLTs (Cohort 9, 350 mg, Schedule 1 (4:3), 3 patients): 0 patients
DLTs (Cohort 11, 300 mg, Schedule 2 (continuous), 2 patients, grade 2 and grade 4 thrombocytopenia): 2 * patients
DLTs (Cohort 12, 200 mg, Schedule 2 (continuous), 6 patients): 0 patients
TEAE: Anemia (all patients (n = 34)): 35.3%
TEAE: Fatigue (all patients (n = 34)): 47.1%
TEAE: Nausea (all patients (n = 34)): 70.6%
TEAE: anorexia (all patients (n = 34)): 32.4%
TEAE: decreased platelet count (thrombocytopenia) (all patients (n = 34)): 41.2%
grade > 3 treatment-related TEAE: anemia (all patients (n = 34)): 11.8%
grade > 3 treatment-related TEAE: anorexia (all patients (n = 34)): 5.9%
grade > 3 treatment-related TEAE: decreased platelet count (all patients (n = 34)): 5.9%
grade > 3 treatment-related TEAE: prolonged QT interval on ECG (all patients (n = 34)): 5.9%
number of grade > 3 treatment-related TEAEs (all patients (n = 34)): 15
patients with Grade > 3 TEAEs (all patients (n = 34)): 18 (52.9%) patients (%)
patients with a treatment-related TEAE (all patients (n = 34)): 33 (97.1%) patients (%)
patients with grade > 3 treatment-related TEAEs (all patients (n = 34)): nine
patients with treatment-related TEAEs leading to dose holding or reduction (all patients (n = 34)): Eleven
patients with serious adverse events (SAEs) (all patients (n = 34), one treatment-related (grade 3 nausea)): 14 (41.2%) patients (%)
TEAE: Constipation (continuous dosing cohort): 75%
TEAE: Diarrhea (continuous dosing cohort): 38%
TEAE: Fatigue (continuous dosing cohort): 50%
TEAE: Headache (continuous dosing cohort): 38%
TEAE: Nausea (continuous dosing cohort): 75%
TEAE: platelet count decrease (continuous dosing cohort): 50%
grade 4 thrombocytopenia events (continuous dosing cohort, two events, in the 300 mg cohort): 25%
TEAE: Abdominal pain (continuous, 200 mg (N=6), G1): 1 (17) N (%)
TEAE: Anemia (continuous, 200 mg (N=6), G1): 0 N (%)
TEAE: Constipation (continuous, 200 mg (N=6), G1): 2 (33) N (%)
TEAE: Decreased appetite (continuous, 200 mg (N=6), G1): 1 (17) N (%)
TEAE: Diarrhea (continuous, 200 mg (N=6), G1): 2 (33) N (%)
TEAE: Dyspepsia (continuous, 200 mg (N=6), G1): 1 (17) N (%)
TEAE: ECG QT prolonged (continuous, 200 mg (N=6), G1): 1 (17) N (%)
TEAE: Fatigue (continuous, 200 mg (N=6), G1): 1 (17) N (%)
TEAE: Headache (continuous, 200 mg (N=6), G1): 2 (33) N (%)
TEAE: Nausea (continuous, 200 mg (N=6), G1): 2 (33) N (%)
TEAE: Pain (continuous, 200 mg (N=6), G1): 1 (17) N (%)
TEAE: Platelet count decreased (continuous, 200 mg (N=6), G1): 1 (17) N (%)
TEAE: Abdominal pain (continuous, 200 mg (N=6), G2): 1 (17) N (%)
TEAE: Anemia (continuous, 200 mg (N=6), G2): 1 (17) N (%)
TEAE: Constipation (continuous, 200 mg (N=6), G2): 3 (50) N (%)
TEAE: Decreased appetite (continuous, 200 mg (N=6), G2): 0 N (%)
TEAE: Diarrhea (continuous, 200 mg (N=6), G2): 0 N (%)
TEAE: Dyspepsia (continuous, 200 mg (N=6), G2): 1 (17) N (%)
TEAE: ECG QT prolonged (continuous, 200 mg (N=6), G2): 1 (17) N (%)
TEAE: Fatigue (continuous, 200 mg (N=6), G2): 2 (33) N (%)
TEAE: Headache (continuous, 200 mg (N=6), G2): 0 N (%)
TEAE: Nausea (continuous, 200 mg (N=6), G2): 2 (33) N (%)
TEAE: Pain (continuous, 200 mg (N=6), G2): 1 (17) N (%)
TEAE: Platelet count decreased (continuous, 200 mg (N=6), G2): 1 (17) N (%)
TEAE: Abdominal pain (continuous, 200 mg (N=6), G3): 0 N (%)
TEAE: Anemia (continuous, 200 mg (N=6), G3): 0 N (%)
TEAE: Constipation (continuous, 200 mg (N=6), G3): 0 N (%)
TEAE: Decreased appetite (continuous, 200 mg (N=6), G3): 0 N (%)
TEAE: Diarrhea (continuous, 200 mg (N=6), G3): 0 N (%)
TEAE: Dyspepsia (continuous, 200 mg (N=6), G3): 0 N (%)
TEAE: ECG QT prolonged (continuous, 200 mg (N=6), G3): 0 N (%)
TEAE: Fatigue (continuous, 200 mg (N=6), G3): 0 N (%)
TEAE: Headache (continuous, 200 mg (N=6), G3): 0 N (%)
TEAE: Nausea (continuous, 200 mg (N=6), G3): 0 N (%)
TEAE: Pain (continuous, 200 mg (N=6), G3): 0 N (%)
TEAE: Platelet count decreased (continuous, 200 mg (N=6), G3): 0 N (%)
TEAE: Abdominal pain (continuous, 200 mg (N=6), G4): 0 N (%)
TEAE: Anemia (continuous, 200 mg (N=6), G4): 0 N (%)
TEAE: Constipation (continuous, 200 mg (N=6), G4): 0 N (%)
TEAE: Decreased appetite (continuous, 200 mg (N=6), G4): 0 N (%)
TEAE: Diarrhea (continuous, 200 mg (N=6), G4): 0 N (%)
TEAE: Dyspepsia (continuous, 200 mg (N=6), G4): 0 N (%)
TEAE: ECG QT prolonged (continuous, 200 mg (N=6), G4): 0 N (%)
TEAE: Fatigue (continuous, 200 mg (N=6), G4): 0 N (%)
TEAE: Headache (continuous, 200 mg (N=6), G4): 0 N (%)
TEAE: Nausea (continuous, 200 mg (N=6), G4): 0 N (%)
TEAE: Pain (continuous, 200 mg (N=6), G4): 0 N (%)
TEAE: Platelet count decreased (continuous, 200 mg (N=6), G4): 0 N (%)
TEAE: Abdominal pain (continuous, 300 mg (N=2), G1): 0 N (%)
TEAE: Anemia (continuous, 300 mg (N=2), G1): 0 N (%)
TEAE: Constipation (continuous, 300 mg (N=2), G1): 1 (50) N (%)
TEAE: Decreased appetite (continuous, 300 mg (N=2), G1): 0 N (%)
TEAE: Diarrhea (continuous, 300 mg (N=2), G1): 1 (50) N (%)
TEAE: Dyspepsia (continuous, 300 mg (N=2), G1): 0 N (%)
TEAE: ECG QT prolonged (continuous, 300 mg (N=2), G1): 0 N (%)
TEAE: Fatigue (continuous, 300 mg (N=2), G1): 0 N (%)
TEAE: Headache (continuous, 300 mg (N=2), G1): 1 (50) N (%)
TEAE: Nausea (continuous, 300 mg (N=2), G1): 2 (100) N (%)
TEAE: Pain (continuous, 300 mg (N=2), G1): 0 N (%)
TEAE: Platelet count decreased (continuous, 300 mg (N=2), G1): 0 N (%)
TEAE: Abdominal pain (continuous, 300 mg (N=2), G2): 0 N (%)
TEAE: Anemia (continuous, 300 mg (N=2), G2): 1 (50) N (%)
TEAE: Constipation (continuous, 300 mg (N=2), G2): 0 N (%)
TEAE: Decreased appetite (continuous, 300 mg (N=2), G2): 0 N (%)
TEAE: Diarrhea (continuous, 300 mg (N=2), G2): 0 N (%)
TEAE: Dyspepsia (continuous, 300 mg (N=2), G2): 0 N (%)
TEAE: ECG QT prolonged (continuous, 300 mg (N=2), G2): 0 N (%)
TEAE: Fatigue (continuous, 300 mg (N=2), G2): 0 N (%)
TEAE: Headache (continuous, 300 mg (N=2), G2): 0 N (%)
TEAE: Nausea (continuous, 300 mg (N=2), G2): 0 N (%)
TEAE: Pain (continuous, 300 mg (N=2), G2): 0 N (%)
TEAE: Platelet count decreased (continuous, 300 mg (N=2), G2): 0 N (%)
TEAE: Abdominal pain (continuous, 300 mg (N=2), G3): 0 N (%)
TEAE: Anemia (continuous, 300 mg (N=2), G3): 0 N (%)
TEAE: Constipation (continuous, 300 mg (N=2), G3): 0 N (%)
TEAE: Decreased appetite (continuous, 300 mg (N=2), G3): 1 (50) N (%)
TEAE: Diarrhea (continuous, 300 mg (N=2), G3): 0 N (%)
TEAE: Dyspepsia (continuous, 300 mg (N=2), G3): 0 N (%)
TEAE: ECG QT prolonged (continuous, 300 mg (N=2), G3): 0 N (%)
TEAE: Fatigue (continuous, 300 mg (N=2), G3): 1 (50) N (%)
TEAE: Headache (continuous, 300 mg (N=2), G3): 0 N (%)
TEAE: Nausea (continuous, 300 mg (N=2), G3): 0 N (%)
TEAE: Pain (continuous, 300 mg (N=2), G3): 0 N (%)
TEAE: Platelet count decreased (continuous, 300 mg (N=2), G3): 0 N (%)
TEAE: Abdominal pain (continuous, 300 mg (N=2), G4): 0 N (%)
TEAE: Anemia (continuous, 300 mg (N=2), G4): 0 N (%)
TEAE: Constipation (continuous, 300 mg (N=2), G4): 0 N (%)
TEAE: Decreased appetite (continuous, 300 mg (N=2), G4): 0 N (%)
TEAE: Diarrhea (continuous, 300 mg (N=2), G4): 0 N (%)
TEAE: Dyspepsia (continuous, 300 mg (N=2), G4): 0 N (%)
TEAE: ECG QT prolonged (continuous, 300 mg (N=2), G4): 0 N (%)
TEAE: Fatigue (continuous, 300 mg (N=2), G4): 0 N (%)
TEAE: Headache (continuous, 300 mg (N=2), G4): 0 N (%)
TEAE: Nausea (continuous, 300 mg (N=2), G4): 0 N (%)
TEAE: Pain (continuous, 300 mg (N=2), G4): 0 N (%)
TEAE: Platelet count decreased (continuous, 300 mg (N=2), G4): 2 (100) N (%)
recommended phase 2 dose (RP2D) (daily on a 4:3 schedule): 300 mg
maximum tolerated dose (MTD) (4:3 intermittent dosing): 450 mg
maximum tolerated dose (MTD) (continuous dosing): 200 mg
patients with grade 1 or 2 QT prolongation (whole study): four
patients with grade 3 QT prolongation (whole study): three
